The values below come from patent US20110301238A1, “SEIZURE RELATED DISORDERS AND THERAPEUTIC METHODS THEREOF” (priority 2010, published 2011).

Where two headings read alike, the source gives them in different places.

Data set [1] relates to mouse seizure models. The arrangement: key: +: Efficacy in mouse seizure models is indicated as plus; −: minus; some (+/−). The note with it: literature; the PTZ model was performed in rats for PHB, PHT and VPA; cited from earlier work.
In data set [2] the test system is mouse seizure models. The arrangement: key: +: Efficacy in mouse seizure models is indicated as plus; −: minus; some (+/−). The note with it: literature; cited from earlier work.
The subject of data set [3] is mouse seizure models. Also noted: key: +: Efficacy in mouse seizure models is indicated as plus; −: minus; some (+/−). The following applies: literature; cited from earlier work. The source holds these as a separate data set.
Data set [4] relates to mouse seizure models. The arrangement: key: +: Efficacy in mouse seizure models is indicated as plus; −: minus; some (+/−). The following applies: literature; cited from earlier work. This is another data set of the same source.
Data set [5] deals with Wistar rats. The arrangement: key to Efficacy in PTZ in PILO-SE rodents (chronic): +: Efficacy in mouse seizure models is indicated as plus; −: minus; some (+/−). The note with it: cited from earlier work; for sensitivity of PTZ-induced seizures to drug: one month after pilocarpine, subcutaneous PTZ.
How the values of data set [6] were obtained: All mice were housed under a 12 h light dark cycle with free access to food and water. […] Adult male CD1 mice (20-35 g, Australian Institute for Bioengineering and Nanotechnology, Australia) were fed similar diet, prepared by Western Specialty Feed (West Australia). […] Diets were mixed fresh every 3-4 days in the laboratory, dried and then supplied to the mice. Mice were initially weighed daily to ensure adequate nutrition.
After 4 days habituation, food intake and body weight were determined daily and then averaged per day for each mouse. 24 h urine samples were taken and organic acids isolated by liquid partition chromatography and trimethylsilyl derivatives quantified by gas chromatography mass spectrometry (Sweetman, 1991). In a separate study mice were fed respective diets for 3 weeks and were decapitated after isoflurane anaesthesia between 1-4 pm. Trunk blood was collected on absorbent filter paper for measurement of acyl-carnitine levels in dried blood spots using tandem mass spectrometry modified from the method of Rashed et al. (Rashed et al., 1997).

The nature of data set [7]: Urine organic acids (GC-MS). The format is in vivo, mice. The note with it: 24 h urine; levels well below those of propionic acidemia patients.
Data set [8] concerns CD1 mice. Nature of the data set: Maximal electroshock threshold test (MEST). In kind it is in vivo. Also noted: key to Efficacy in MEST (acute): +: Efficacy in mouse seizure models is indicated as plus; −: minus; some (+/−). On the procedure: 0.5% Tetracaine (Sigma Aldrich) in 0.9% NaCl solution was applied to corneas 30 minutes prior to stimulation. Saline solution was also applied to corneas and electrodes immediately prior to stimulation to ensure solid conduction. Mice were administered corneal electroshocks, which were generated using a Hugo Sachs Type 211 rodent shocker (Harvard Apparatus, Germany). Stimulation parameters of 50-60 Hz sine wave frequency, 0.2 second shock duration starting at an 11 mA current were used (Giardina and Gasior, 2009). Immediately following shock administration mouse seizure behaviour was observed. Severe clonic convulsions followed by tonic extension of both forelimbs were classified as seizures. 1 mA increments were used to determine the seizure threshold CC50 value using the up down method (Kimball et al., 1957). All mice were terminated via cervical dislocation immediately following seizure observational time.

In data set [9] the test system is CF1 mice. The data set can be described thus: Corneal kindling. In kind it is in vivo. Also noted: key to Delay in corneal kindling (chronic): +: Efficacy in mouse seizure models is indicated as plus; −: minus; some (+/−). The method, then: The corneal kindling model was slightly modified from the original protocol ([…] and […], 1998) with kindling twice a day with at least 4 h intervals. A topical anesthetic (0.5% tetracaine hydrochloride ophthalmic solution) was applied to the corneas 10-15 min before stimulation. After wetting the electrodes with 0.9% NaCl immediately before testing, 9 mA 0.4 ms duration pulses at 50 Hz were applied to the corneas for 3 seconds by a constant-current device (ECT Unit 57800, Ugo Basile). Mice were manually held during stimulation and then released for behavioral observation. Seizures were scored according to a modified Racine scale (Racine, 1972) as described by […] and […] (1998) with 0=no reaction or immobility; 1=jaw clonus; 2=myoclonic twitches in the forelimbs, sometimes with head nodding; 3=clonic convulsions in the forelimbs; 4=clonic convulsions in the forelimbs with rearing and falling; 5=loss of balance. […] Both groups had the same average seizure scores for the full kindling period and the last three days of kindling. During the five following weeks, mice were rekindled every week twice a day on two consecutive days and the scores were averaged.

For data set [10], the system named is CF1 mice. The data set can be described thus: PTZ (i.v.) seizure threshold, second hit model in chronic stage of pilocarpine SE model. The format is in vivo. The arrangement: key to Efficacy in PTZ in PILO-SE rodents (chronic): +: Efficacy in mouse seizure models is indicated as plus; −: minus; some (+/−). On the procedure: The pilocarpine CF1 mouse model used in this study was slightly modified from our previous description (Borges et al., 2003, Borges et al., 2004, Borges et al., 2006, Borges et al., 2008). 26-43 g CF1 mice were injected with methylatropine (2 mg/kg i.p. in 0.9% NaCl) to minimize peripheral side effects followed after 15-30 min by different doses of pilocarpine for CF1 mice (270-360 mg/kg, s.c.). About fifty percent of injected mice experienced behavioral status epilepticus (SE) lasting about four hours as defined by continuous seizure activity consisting mainly of whole body continuous clonic seizures. 4.5 h after pilocarpine injection, all mice were injected with pentobarbital (22.5 mg/kg, i.p.) followed by 1 ml 5% dextrose in lactate Ringer's solution (i.p.). After SE, mice were monitored daily, hand-fed moistened cookies and injected with 5% dextrose in lactate Ringer's solution twice a day for about three days and thereafter when needed. Spontaneous and handling-induced seizures, including stage 3-5 seizures, jumping and wild running, were noted. […] “Sham control” mice received methylatropine and pentobarbital, but saline instead of pilocarpine. Out of a total of 205 mice injected with pilocarpine, the inventors obtained 44% SE, 41% no SE mice, while 14% of mice died. In the chronic stage of the pilocarpine model, the seizure thresholds for the first generalized clonic and tonic seizures induced by pentylenetetrazole (PTZ, i.v.) as a measure for seizure susceptibility of SE, no SE and control mice were assessed. As previously described ([…] et al., 2008, Willis et al., 2009), 10 mg/ml PTZ dissolved in saline was infused into the tail vein at 150 μl/min. The latencies to the first generalized myoclonic seizure and tonic extension were determined and converted to seizure thresholds expressed as mg/kg body weight. Mice were euthanized by cervical dislocation immediately after the tonic extension seizure.

A short description of data set [11]: Brain metabolite analysis in chronic stage of pilocarpine model (GC-MS/LC-MS). The format is in vivo, CF1 mice. The note with it: for brain BHB (β-hydroxybutyrate) / brain Fumarate (%) / brain GABA / brain aspartate (%) / brain citrate / brain glutamate / brain glutamine / brain malate (%) / brain succinate: 35% triheptanoin for three weeks. The text has this: (§1) Both groups of mice received standard diet during the phase of epileptogenesis, the first two weeks after SE. They were then divided into two groups of equal average weight and received either standard or 35% triheptanoin-containing diet for three weeks. To avoid metabolite changes induced by anesthesia, mice were killed by cervical dislocation and then decapitated. Within 22-32 seconds brains without cerebellum were frozen in liquid nitrogen. Trunk blood was collected in heparinized tubes for analysis of β-hydroxybutyrate and glucose using kits from Pointe Scientific and […], respectively. Brains were stored at -80 C and shipped to the Metabolic Mouse Phenotyping Center at Case Western University for chromatography mass spectrometry (GC-MS/LC-MS) analysis and characterization of intermediates and products of the CAC and acyl-CoA's.

A short description of data set [12]: Plasma β-hydroxybutyrate and glucose in pilocarpine model. The format is in vivo, CF1 mice. The following applies: no significant changes; range over the SE/no SE and diet groups.
From the text: as §1

Data set [13] deals with mouse seizure models. The data set can be described thus: PTZ (acute) seizure model. The format is in vivo. Also noted: key to Efficacy in PTZ (acute): +: Efficacy in mouse seizure models is indicated as plus; −: minus; some (+/−).
The test system of data set [14] is mouse seizure models. Nature of the data set: 6 Hz (acute) seizure model. In kind it is in vivo. The arrangement: key to Efficacy in 6 Hz (acute): +: Efficacy in mouse seizure models is indicated as plus; −: minus; some (+/−).
The subject of data set [15] is acute seizure models. The data set can be described thus: Fluorothyl acute seizure model. In kind it is in vivo. The note with it: 30% triheptanoin (Willis and Borges in preparation).
The mark [16] stands for this setting: chronically epileptic SE mice, not in no SE mice.
Where [17] appears, read: 30% triheptanoin (Willis and Borges in preparation).

In the case of `NC(=O)N1c2ccccc2C=Cc2ccccc21` [CBZ, carbamazepine], the “Efficacy in PTZ (acute)” value in data set [1] is listed as “−”. In data set [2], the “Efficacy in 6 Hz (acute)” value is “+/−”. Besides, the “Efficacy in MEST (acute)” value in data set [3] is recorded as “+”.

On to `CC[C@@H](C(N)=O)N1CCCC1=O` [LEV, levetiracetam], for which the “Efficacy in PTZ (acute)” value in data set [1] is recorded as “−”. In addition, the “Efficacy in 6 Hz (acute)” value in data set [2] is given as “+”. For the same molecule, in data set [3], the “Efficacy in MEST (acute)” value is “−”. Further, the “Delay in corneal kindling (chronic)” value in data set [4] is “+”.

Take `O=C1NC(=O)C(c2ccccc2)(c2ccccc2)N1` [PHT, phenyloin]: in data set [1], the “Efficacy in PTZ (acute)” value is on record as “−”. Moreover, the “Efficacy in 6 Hz (acute)” value in [2] is “+”. The “sensitivity of PTZ-induced seizures to drug” value in data set [5] (SE Wistar rats) is “not in SE rats”; in data set [5] (no SE Wistar rats), “sensitive”. Further, in [5] (literature, PTZ model performed in rats for PHB, PHT and VPA), the “Efficacy in PTZ in PILO-SE rodents (chronic)” value is “−”. Also, the “Efficacy in MEST (acute)” value in data set [3] is reported as “+”.

Turning to `CCCCCCC(=O)OCC(COC(=O)CCCCCC)OC(=O)CCCCCC` [Triheptanoin, 1,3-di(heptanoyloxy)propan-2-yl heptanoate], in [6] (35% triheptanoin diet vs standard chow, up to 52 days, CF1 mice), the body weights result is listed as “statistically indistinguishable”. Also, in [6] (mouse, in vivo), the tolerability result is recorded as “well tolerated”. The “urine markers for propionic acidemia (methylmalonate, methylcitrate)” value in [7] is recorded as “some increases”. Moreover, the “MEST (critical current at which 50% of mice seize, CC50)” value in data set [8] (35% of daily caloric intake as triheptanoin oil, after 3.5 and six weeks, CD1 mice, p=0.018 and p<0.0011) is reported as “reproducible increase”. Further, in [8] (mouse), the “Efficacy in MEST (acute)” value is “+”. The “development of corneally kindled seizures” value in data set [9] (35% triheptanoin feeding from three weeks prior to and throughout kindling, CF1 mice) is “delayed the development of kindled seizures”. Moreover, the “Delay in corneal kindling (chronic)” value in data set [9] (mouse) is given as “+”. For the same molecule, in data set [10] (SE or no SE mice, diet for three weeks after pilocarpine), the “PTZ clonic seizure thresholds” value was “no effect”. Moreover, the “reversal of increased susceptibility to PTZ tonic extension in SE mice” value in data set [10] (diet initiated immediately after pilocarpine injection, three weeks, p<0.05) was “about 40%”. In addition, the “Efficacy in PTZ in PILO-SE rodents (chronic)” value in data set [10] (mice) was “+”. Also, the “reversal of susceptibility to PTZ tonic extension in no SE mice” value in data set [10] (no SE mice, three weeks after pilocarpine injection) was “but not in no SE mice”. In addition, the “counteraction of 30% increased susceptibility to tonic extension seizure in SE mice” value in data set [10] (three week feeding initiated two weeks after pilocarpine injection, p<0.05) is listed as “about 50%”. In addition, the “brain β-hydroxybutyrate levels” value in data set [11] (35% triheptanoin diet, both SE and no SE brains) is reported as “doubled”. In data set [11] (No SE mice), the “brain BHB (β-hydroxybutyrate)” value is recorded as 108.9 ± 9.6 μmol/g wet weight, the “brain Fumarate (%)” value was 82.8 ± 3.8 % of control, the “brain GABA” value is reported as 2.36 ± 0.13 μmol/g wet weight and the “brain aspartate (%)” value is on record as 104.0 ± 7.0 % of control. In data set [11] (No SE mice), the brain citrate worked out at 0.21 ± 0.01 μmol/g wet weight, the brain glutamate was found to be 21.59 ± 0.92 μmol/g wet weight, the brain glutamine amounted to 12.91 ± 0.49 μmol/g wet weight and the “brain malate (%)” value is listed as 125.5 ± 7.7 % of control. Moreover, the brain succinate in [11] (No SE mice) is recorded as 0.11 ± 0.01 μmol/g wet weight. In data set [11] (SE mice), the “brain BHB (β-hydroxybutyrate)” value was 127.4 ± 15.7 μmol/g wet weight, the “brain Fumarate (%)” value is 81.4 ± 2.9 % of control, the “brain GABA” value amounted to 2.16 ± 0.05 μmol/g wet weight and the “brain aspartate (%)” value is on record as 76.6 ± 4.1 % of control. In data set [11] (SE mice), the brain citrate is 0.2 ± 0.01 μmol/g wet weight, the brain glutamate turned out to be 22.01 ± 1.65 μmol/g wet weight, the brain glutamine came to 13.15 ± 0.48 μmol/g wet weight and the “brain malate (%)” value is 80.1 ± 3.9 % of control. The brain succinate in [11] (SE mice) was determined as 0.10 ± 0.01 μmol/g wet weight. Moreover, the “brain propionyl-CoA levels” value in data set [11] (SE mice, triheptanoin feeding, p<0.001) is recorded as “restored”. The “steady state brain level of succinyl-CoA” value in [11] (by SE or diet) was “No significant changes”. In data set [11] (setting [16]), the “increase of brain HMG-CoA levels” value came to 1.8 fold and the “increase of brain methylmalonyl-CoA levels” value is 1.4 fold. Further, in [11] (no SE mice, p<0.05), the “decrease of brain fumarate levels” value was determined as 17% and the “increase of brain malate levels” value was 26%. In [12], the “plasma levels of glucose” value fell in the range of 174 to 228 mg/dL and the “plasma levels of β-hydroxybutyrate” value was 0.17 to 0.28 mM. For the same molecule, in data set [13] (setting [17]), the “anticonvulsant effect in acute PTZ (i.v.) model” value was “No consistent anticovulsant effect”. For the same molecule, the “Efficacy in PTZ (acute)” value in [13] (mouse) is recorded as “−”. The “anticonvulsant effect in acute 6 Hz model” value in [14] (setting [17]) is given as “No consistent anticovulsant effect”. Also, in [14] (mouse), the “Efficacy in 6 Hz (acute)” value was “−”. For the same molecule, the “anticonvulsant effect in acute fluorothyl model” value in data set [15] is “No consistent anticovulsant effect”.
